In patent publication EP4617273A1, “FUSED TRICYCLIC PARP1 INHIBITOR, PREPARATION METHOD THEREFOR, AND USE THEREOF” (Haihe Biopharma Co., Ltd., priority 2022, dated 2024):
Read-outs that look alike come from different tables or passages of the source.

Tests used:
[1] = target: T1, recombinant human PARP2 protein (Homo sapiens, UniProt Q9UGN5); assay: PARP2 enzymatic inhibitory activity, histone substrate, chemiluminescent ELISA; assay type: biochemical
T1 construct: purchased BPS 80502
Procedure: The PARP2 inhibitory activity assay was performed as in Experimental Method 1, except that PARP1 solution in step 2 of "3. Ribosylation reaction" was replaced with recombinant human PARP2 solution, and 500 µM NAD+ was not added in step 5 of the ribosylation reaction. Table 1. IC50 for inhibition of PARP1/2 enzymes by compounds of the present invention

[2] = target: T2, Recombinant human PARP1 protein (Homo sapiens, UniProt P09874); assay: biochemical
Procedure: (§1) The PARP1/2 inhibitory activity of the compounds of the present invention was tested in an assay using Histone as a substrate.
(§2) Aim of the assay: to test the PARP1/2 enzymatic activity inhibition IC50 values of the compounds of the present application according to established experimental methods.
(§3) 1. Compound Configuration: Dilute the compounds with DMSO in 384-well plates to a 1000-fold final concentration and set aside.
(§4) 1) Dilute Histone with PBS, add 25uL of Histone mixture to each well and incubate for 2 h. 2) Wash each well 5 times using PBST solution. Remove the solution with a clean paper towel.3) Add 75 uL of Blocking buffer to each well and incubate for 1 h at rt. 4) Wash each well 5 times using PBST solution. Remove the solution with a clean paper towel.
(§5) 2) Use 1× Assay buffer to prepare 2.5× final concentration of PARP1 solution. 3) Add 10 uL of enzyme solution to the compound wells and Max control wells; add 10 uL of 1× Assay buffer. […] 6) Centrifuge at 1000 rpm for 60 seconds and incubate at rt for 2 h. 7) Each well was washed 5 times with PBST solution. Remove the solution with a clean paper towel.
(§6) 1) Prepare Streptavidin-HRP solution, add 25 µL to each well, centrifuge at 1000 rpm for 60 sec, and incubate at rt for 30 min. 2) Wash each well 5 times using PBST solution. Remove the solution with a clean paper towel. 3) Add 50 µL of ELISA Chemiluminescent Substrate per well. 4) Centrifuge at 1000 rpm for 60 seconds and read with EnSight after 5 min.
(§7) The inhibition rate was calculated using the following formula: % inhibition = (max signal - compound signal) / (max signal - min signal) × 100, where 'min signal' is the mean value of negative control wells and 'max signal' is the mean value of positive control wells.
(§8) Fitting the quantitative effect curve: using the log value of the concentration as the X-axis and the percentage inhibition as the Y-axis; using the log(inhibitor) vs. response-variable slope method in software GraphPadPrism5 to fit the quantitative effect curve to calculate the IC50 value for the inhibition of the enzyme activity by the compounds of the present invention. The fitting formula is: Y=Bottom+ (Top-Bottom)/(1+10^((logIC50-X)*HillSlope)).

[3] = target: T2, Recombinant human PARP1 protein; assay: PARP1 enzymatic inhibitory activity, histone substrate, chemiluminescent ELISA; details: PARP2 IC50 over PARP1 IC50
Procedure: as §1, §2, §3, §4, §5, §6, §7, §8

[4] = tested on: MDA-MB-436 cells; assay: MDA-MB-436 cell proliferation inhibition test (CellTiter-Glo, 7 days); assay type: cell-based; details: Homo sapiens, MDA-MB-436, 168 h, 7 days incubation
Procedure: Human breast cancer MDA-MB-436 (purchased from ATCC) cells were cultured in DMEM medium (supplemented with 10% fetal bovine serum with 1% dual antibody) at 37 °C, 5% CO2. The cells were taken from the logarithmic growth phase, digested and prepare cell suspension witha certain concentration, which was inoculated into 96-well plates. 100 µL of cell suspension was added to each well of the 96-well plates, incubated overnight, then different concentrations of compounds were added, and the cells were incubated in the cell culture incubator for 7 days. At the end of incubation, 50 µL of CellTiter-Glo reagent was added to each well, mixed with a microplate and shaked for 2 min, and left at rt for 60 min, then the fluorescence value was read with a Spark® multimode microplate reader. […] Table 2. proliferation inhibitory activity of compounds of the present invention on MDA-MB-436 cells

[5] = histone substrate, 500 µM NAD+ not added, read-out: PARP2 IC50

T2 sequence (P09874 whole entry): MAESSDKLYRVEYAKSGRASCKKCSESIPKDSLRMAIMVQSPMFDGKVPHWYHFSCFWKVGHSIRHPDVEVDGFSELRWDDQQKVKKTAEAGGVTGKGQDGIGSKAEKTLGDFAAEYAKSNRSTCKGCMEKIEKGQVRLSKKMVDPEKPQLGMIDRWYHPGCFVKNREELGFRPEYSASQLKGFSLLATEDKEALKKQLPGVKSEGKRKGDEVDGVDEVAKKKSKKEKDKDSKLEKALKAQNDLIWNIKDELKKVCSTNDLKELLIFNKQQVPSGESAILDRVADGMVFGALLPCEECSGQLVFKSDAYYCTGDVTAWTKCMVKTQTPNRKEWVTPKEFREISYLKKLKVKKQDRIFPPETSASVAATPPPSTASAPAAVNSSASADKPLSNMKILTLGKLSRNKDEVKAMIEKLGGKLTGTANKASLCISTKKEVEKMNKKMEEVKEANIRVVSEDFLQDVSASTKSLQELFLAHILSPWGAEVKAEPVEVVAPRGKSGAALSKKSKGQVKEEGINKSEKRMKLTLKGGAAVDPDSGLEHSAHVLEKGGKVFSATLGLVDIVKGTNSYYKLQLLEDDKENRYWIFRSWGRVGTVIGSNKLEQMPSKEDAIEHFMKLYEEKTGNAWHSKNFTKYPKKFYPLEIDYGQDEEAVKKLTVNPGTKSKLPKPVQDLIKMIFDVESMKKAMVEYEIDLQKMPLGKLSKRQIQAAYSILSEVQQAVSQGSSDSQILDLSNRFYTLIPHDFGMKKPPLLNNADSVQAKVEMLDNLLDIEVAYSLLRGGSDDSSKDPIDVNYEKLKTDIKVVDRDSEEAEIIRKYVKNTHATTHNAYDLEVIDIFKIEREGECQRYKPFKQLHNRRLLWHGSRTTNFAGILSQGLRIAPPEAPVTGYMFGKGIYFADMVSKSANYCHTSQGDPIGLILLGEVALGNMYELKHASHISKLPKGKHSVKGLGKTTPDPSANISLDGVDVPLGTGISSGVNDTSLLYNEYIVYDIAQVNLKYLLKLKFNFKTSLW
T1 sequence (Q9UGN5 whole entry): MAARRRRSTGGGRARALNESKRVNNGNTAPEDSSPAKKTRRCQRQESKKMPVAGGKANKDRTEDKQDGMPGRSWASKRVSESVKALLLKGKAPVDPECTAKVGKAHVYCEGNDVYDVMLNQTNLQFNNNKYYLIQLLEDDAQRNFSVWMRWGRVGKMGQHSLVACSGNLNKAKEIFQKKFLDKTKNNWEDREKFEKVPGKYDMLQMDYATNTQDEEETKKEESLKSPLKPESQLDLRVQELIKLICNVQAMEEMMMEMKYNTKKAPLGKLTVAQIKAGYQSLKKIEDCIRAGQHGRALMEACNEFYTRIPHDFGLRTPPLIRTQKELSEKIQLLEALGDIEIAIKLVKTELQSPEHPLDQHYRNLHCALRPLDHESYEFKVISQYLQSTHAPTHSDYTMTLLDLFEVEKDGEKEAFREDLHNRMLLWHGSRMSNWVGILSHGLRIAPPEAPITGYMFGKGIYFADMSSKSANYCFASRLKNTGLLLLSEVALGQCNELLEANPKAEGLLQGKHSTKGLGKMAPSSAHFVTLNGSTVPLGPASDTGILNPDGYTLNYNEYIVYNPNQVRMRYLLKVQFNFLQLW

SMILES | IC50 [2] [nM] | also measured
CNC(=O)c1ccc(N2CCN(Cc3ccc4c(c3F)NC(=O)N3CC(C)CN=C43)CC2)c(F)n1 (centres unmarked) [Compound 144] | 5.2 | IC50 [1, 5]: > 10000 nM; PARP1/2 Fold selectivity [3]: >1923
CNC(=O)c1ccc(N2CCN(Cc3ccc4c(c3F)NC(=O)N3C[C@@H](F)CN=C43)CC2)c(F)n1 [Compound 149] | 1.6 | IC50 [1]: 893 nM; PARP1/2 Fold selectivity [3]: 557.9
CNC(=O)c1ccc(N2CCN(Cc3ccc4c(c3F)NC(=O)N3C[C@H](C)N=C43)CC2)c(C)n1 [Compound 151] | 1.1 | IC50 [4]: 17.5 nM
Cc1nc(C(=O)NC2CC2)ccc1N1CCN(Cc2ccc3c(c2F)NC(=O)N2CCN=C32)CC1 [Compound 130] | 3.4 | –
CNC(=O)c1ccc(N2CCN(Cc3ccc4c(c3F)NC(=O)N3CCN=C43)CC2)c(Cl)n1 [Compound 126] | 1.3 | IC50 [4]: 5.4 nM
CCNC(=O)c1ccc(N2CCN(Cc3ccc4c(c3F)NC(=O)N3C[C@@H](C)N=C43)CC2)c(Cl)n1 [Compound 185] | 1.09 | IC50 [1, 5]: 894 nM; PARP1/2 Fold selectivity [3]: 820.2
CNC(=O)c1ccc(N2CCN(Cc3ccc4c(c3)NC(=O)N3CCN=C43)CC2)c(F)n1 [Compound 124] | 1.07 | IC50 [1, 5]: 561 nM; PARP1/2 Fold selectivity [3]: 524.6
CNC(=O)c1ccc(N2CCN(Cc3cc4c(cc3Cl)C3=NCCN3C(=O)N4)CC2)c(F)n1 [Compound 135] | 9.6 | –
CCNC(=O)c1ccc(N2CCN(Cc3ccc4c(c3F)NC(=O)N3CCCN=C43)CC2)c(F)n1 [Compound 171] | 0.7 | –
CNC(=O)c1ccc(N2CCN(Cc3ccc4c(c3F)NC(=O)N3C[C@H](C)N=C43)CC2)c(F)n1 [Compound 133] | 1.2 | IC50 [4]: 28.7 nM
CNC(=O)c1ccc(N2CCN(Cc3ccc4c(c3)[nH]c(=O)c3cn(C)nc34)CC2)c(F)n1 [Compound 101] | 1.7 | IC50 [4]: 9.3 nM
CNC(=O)c1ccc(N2CCN(C(C)c3ccc4c([nH]c(=O)c5cccn54)c3F)CC2)cn1 (centres unmarked) [Compound 8] | 2.04 | IC50 [1, 5]: 118 nM; PARP1/2 Fold selectivity [3]: 57.9
O=C(NC1CC1)c1ccc(N2CCN(Cc3ccc4c(c3F)NC(=O)N3CCCN=C43)CC2)c(Cl)n1 [Compound 202] | 1.6 | –
O=C(N[C@@H]1CCOC1)c1ccc(N2CCN(Cc3ccc4c([nH]c(=O)c5ccnn54)c3F)CC2)c(F)n1 [Compound 112] | 14.2 | –
CNC(=O)c1ccc(N2CCN(Cc3ccc4c(c3F)NC(=O)N3C[C@H](F)CN=C43)CC2)c(C)n1 [Compound 145] | 0.6 | IC50 [4]: 8.9 nM
N#Cc1ccc(N2CCN(Cc3ccc4c(c3F)NC(=O)N3CCCN=C43)CC2)nc1 [Compound 188] | 1.56 | IC50 [1, 5]: 728 nM; PARP1/2 Fold selectivity [3]: 466.3
CNC(=O)c1ccc(N2CCN(Cc3ccc4c(c3F)NC(=O)N3CC(F)(F)CN=C43)CC2)c(F)n1 [Compound 148] | – | IC50 [4]: 3.6 nM
CNC(=O)c1ccc(N2CCN(C(C)c3ccc4c(c3)[nH]c(=O)c3cccn34)CC2)cn1 (centres unmarked) [Compound 6] | 0.42 | IC50 [1, 5]: 21.7 nM; PARP1/2 Fold selectivity [3]: 51.7
CCNC(=O)c1ccc(N2CCN(Cc3ccc4c(c3F)NC(=O)N3CC(F)(F)CN=C43)CC2)c(F)n1 [Compound 186] | 0.58 | IC50 [4]: 6.4 nM

SMILES | IC50 [2] [nM] | also measured
CCNC(=O)c1ccc(N2CCN(Cc3ccc4c(c3F)NC(=O)N3C[C@@H](C)N=C43)CC2)c(C)n1 [Compound 34] | 1.83 | IC50 [1, 5]: 780 nM; PARP1/2 Fold selectivity [3]: 426.4
O=C(NC1CC1)c1ccc(N2CCN(Cc3ccc4c(c3F)NC(=O)N3CCCN=C43)CC2)c(F)n1 [Compound 182] | 1.83 | IC50 [1, 5]: 547 nM; PARP1/2 Fold selectivity [3]: 299
CC(c1ccc2c([nH]c(=O)c3ccnn32)c1F)N1CCN(c2ccc(C#N)cn2)CC1 (centres unmarked) [Compound 98] | 18.4 | –
CNC(=O)c1ccc(N2CCN(Cc3ccc4c(c3)NC(=O)N3CCCN=C43)CC2)c(C)n1 [Compound 192] | 1 | –
CNC(=O)c1ccc(N2CCN(Cc3ccc4c(c3F)NC(=O)N3CCN=C43)CC2)c(C)n1 [Compound 129] | – | IC50 [4]: < 1.52 nM
CNC(=O)c1ccc(O[C@H]2CN(Cc3ccc4c(c3F)NC(=O)N3C[C@@H](C)N=C43)[C@@H]2C)cn1 [Compound 199] | 0.6 | –
CNC(=O)c1ccc(N2CCN(Cc3ccc4c(c3F)NC(=O)N3CCN=C43)CC2)c(F)n1 [Compound 123] | 0.8 | IC50 [4]: 27.4 nM
CNC(=O)c1ccc(N2CCN(Cc3ccc4c(c3)[nH]c(=O)n3cc(C)nc43)CC2)c(F)n1 [Compound 117] | 0.5 | –
C[C@@H]1CN2C(=O)Nc3c(ccc(CN4CCN(c5ccc(C(=O)NC6CC6)nc5Cl)CC4)c3F)C2=N1 [Compound 201] | 1.2 | IC50 [1, 5]: 1550 nM; PARP1/2 Fold selectivity [3]: 1324
CNC(=O)c1ccc(N2CCN(Cc3ccc4c(c3)NC(=O)N3C[C@@H](C)N=C43)CC2)c(C)n1 [Compound 190] | 0.34 | –
CNC(=O)c1ccc(N2CCN(Cc3ccc4c(c3F)NC(=O)N3C4=NC[C@@H]3C)CC2)c(C)n1 [Compound 155] | 1.46 | IC50 [1, 5]: 893 nM; PARP1/2 Fold selectivity [3]: 611.4
CNC(=O)c1ccc(N2CCN(Cc3ccc4c(c3F)NC(=O)N3C[C@H](F)CN=C43)CC2)c(Cl)n1 [Compound 146] | – | IC50 [4]: 12.4 nM
CNC(=O)c1ccc(N2CCN(Cc3ccc4c(c3F)NC(=O)N3C[C@@H](C)N=C43)CC2)c(C(F)F)n1 [Compound 203] | 1.4 | –
CNC(=O)c1ccc(N2CCN(Cc3ccc4c(c3)NC(=O)N3CCCN=C43)CC2)c(Cl)n1 [Compound 191] | 0.9 | IC50 [1, 5]: 296 nM; PARP1/2 Fold selectivity [3]: 323
CNC(=O)c1ccc(N2CCN(Cc3ccc4c(c3F)NC(=O)N3CC[C@@H](C)N=C43)CC2)c(F)n1 [Compound 143] | 4.6 | –
CC(c1ccc2c([nH]c(=O)c3ccnn32)c1F)N1CCN(c2ccc(F)cc2F)CC1 (centres unmarked) [Compound 99] | 571 | –
CCNC(=O)c1ccc(N2CCN(Cc3ccc4c(c3F)NC(=O)N3CCCN=C43)CC2)c(C)n1 [Compound 184] | 1.13 | –
CNC(=O)c1ccc(N2CCN(Cc3ccc4c([nH]c(=O)c5cscc54)c3F)CC2)c(F)n1 [Compound 80] | 0.85 | –
O=C1Nc2c(ccc(CN3CCN(c4ccc(F)cc4F)CC3)c2F)C2=NCCCN12 [Compound 195] | 40.8 | –

SMILES | IC50 [2] [nM] | also measured
C[C@@H]1CN2C(=O)Nc3c(ccc(CN4CCN(c5ccc(C#N)cn5)CC4)c3F)C2=N1 [Compound 187] | 0.95 | –
CNC(=O)c1ccc(N2CCN(Cc3ccc4c(c3F)NC(=O)N3CCCN=C43)CC2)c(C(F)F)n1 [Compound 204] | 1.5 | –
CNC(=O)c1ccc(N2CCN(Cc3ccc4c(c3F)NC(=O)N3CCCN=C43)CC2)c(C)n1 [Compound 140] | 1.5 | IC50 [4]: 12.8 nM
CNC(=O)c1ccc(N2CCN(Cc3ccc4c([nH]c(=O)c5cnnn54)c3F)CC2)c(F)n1 [Compound 26] | 17.7 | –
CNC(=O)c1ccc(N2CCN(Cc3ccc4c([nH]c(=O)c5sccc54)c3F)CC2)c(F)n1 [Compound 77] | 0.6 | –
CCNC(=O)c1ccc(N2CCN(Cc3ccc4c(c3F)NC(=O)N3C[C@@H](C)N=C43)CC2)c(F)n1 [Compound 172] | 0.7 | IC50 [4]: 5.7 nM
CCNC(=O)c1ccc(N2CCN(Cc3ccc4c(c3F)NC(=O)N3CCN=C43)CC2)c(F)n1 [Compound 128] | 2.2 | –
CNC(=O)c1ccc(N2CCN(Cc3ccc4c(c3F)NC(=O)N3C[C@@H](C)N=C43)[C@H](C)C2)c(Cl)n1 [Compound 197] | 0.3 | –
CNC(=O)c1ccc(N2CCN(Cc3ccc4c(c3F)NC(=O)N3C[C@@H](C)N=C43)CC2)cn1 [Compound 193] | 1.7 | –
CCNC(=O)c1ccc(N2CCN(Cc3ccc4c(c3F)NC(=O)N3CCCN=C43)CC2)c(Cl)n1 [Compound 183] | 0.36 | IC50 [4]: 9.2 nM
CNC(=O)c1ccc(N2CCN(C(C)c3ccc4c([nH]c(=O)c5cn(C)nc54)c3F)CC2)c(F)n1 (centres unmarked) [Compound 19] | 273 | –
CNC(=O)c1ccc(C2CCN(Cc3ccc4c(c3F)NC(=O)N3C[C@@H](C)N=C43)CC2)c(Cl)n1 [Compound 194] | 2.2 | –
CNC(=O)c1ccc(N2CCN(Cc3ccc4c(c3F)NC(=O)N3C[C@@H](C)N=C43)CC2)c(C)n1 [Compound 153] | 1.3 | IC50 [4]: 8.1 nM
CNC(=O)c1ccc(N2CCN(Cc3ccc4c(c3F)NC(=O)N3C[C@H](C)N=C43)CC2)c(Cl)n1 [Compound 152] | 1.5 | IC50 [4]: 21.5 nM
C[C@@H]1CN2C(=O)Nc3c(ccc(CN4CCN(c5ccc(C(=O)NCC(F)F)nc5Cl)CC4)c3F)C2=N1 [Compound 198] | 0.5 | –
CNC(=O)c1ccc(N2CCN(Cc3ccc4c(c3C)NC(=O)N3CCN=C43)CC2)c(F)n1 [Compound 127] | 7.3 | –
CNC(=O)c1ccc(N2CCN(Cc3ccc4c(c3)NC(=O)N3C[C@@H](C)N=C43)CC2)c(Cl)n1 [Compound 189] | 0.67 | –
CNC(=O)c1ccc(N2CCN(Cc3ccc4c(c3)[nH]c(=O)c3cnn(C)c34)CC2)c(F)n1 [Compound 16] | 0.22 | –
